# According to US8192962B2, “Processes for detecting toxic substances” (Daikin Industries, Ltd., priority 2001, dated 2012):
# Tested on: Detoxification protein genes
# Assay: DNA chip mRNA expression in yeast, detoxification protein genes (Table 8)
# Type: cell-based, Saccharomyces cerevisiae S288C
# Summary of the method: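 S. cerevisiae S288C grown at 25° C in YPD were exposed in log phase for two hours to one toxic chemical at a growth-inhibiting, non-lethal concentration; untreated cells served as control. Poly(A) mRNA was reverse-transcribed with Cy3/Cy5-dUTP and hybridized to a whole-genome yeast DNA chip at 65° C for over 12 hours; values are fluorescence ratios versus untreated.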
substance,measurement,setting,value
manganese ethylenebis(dithiocarbamate) [(8)],The level of expressed mRNA in the presence of chemical substance/The level of expressed mRNA in the absence of chemical substance,yeast gene YBL064C,2.4
same,The level of expressed mRNA in the presence of chemical substance/The level of expressed mRNA in the absence of chemical substance,yeast gene YBR008C,2.8
same,The level of expressed mRNA in the presence of chemical substance/The level of expressed mRNA in the absence of chemical substance,yeast gene YBR145W,1.0
same,The level of expressed mRNA in the presence of chemical substance/The level of expressed mRNA in the absence of chemical substance,yeast gene YBR244W,1.0
same,The level of expressed mRNA in the presence of chemical substance/The level of expressed mRNA in the absence of chemical substance,yeast gene YBR293W,0.9
same,The level of expressed mRNA in the presence of chemical substance/The level of expressed mRNA in the absence of chemical substance,yeast gene YCL035C,1.4
same,The level of expressed mRNA in the presence of chemical substance/The level of expressed mRNA in the absence of chemical substance,yeast gene YCL069W,1.3
same,The level of expressed mRNA in the presence of chemical substance/The level of expressed mRNA in the absence of chemical substance,yeast gene YCR083W,1.5
same,The level of expressed mRNA in the presence of chemical substance/The level of expressed mRNA in the absence of chemical substance,yeast gene YDL100C,1.7
same,The level of expressed mRNA in the presence of chemical substance/The level of expressed mRNA in the absence of chemical substance,yeast gene YDL168W,1.7
same,The level of expressed mRNA in the presence of chemical substance/The level of expressed mRNA in the absence of chemical substance,yeast gene YDR256C,0.8
same,The level of expressed mRNA in the presence of chemical substance/The level of expressed mRNA in the absence of chemical substance,yeast gene YDR453C,1.3
same,The level of expressed mRNA in the presence of chemical substance/The level of expressed mRNA in the absence of chemical substance,yeast gene YDR513W,1.6
same,The level of expressed mRNA in the presence of chemical substance/The level of expressed mRNA in the absence of chemical substance,yeast gene YDR538W,1.0
same,The level of expressed mRNA in the presence of chemical substance/The level of expressed mRNA in the absence of chemical substance,yeast gene YEL027W,0.9
same,The level of expressed mRNA in the presence of chemical substance/The level of expressed mRNA in the absence of chemical substance,yeast gene YEL065W,0.9
same,The level of expressed mRNA in the presence of chemical substance/The level of expressed mRNA in the absence of chemical substance,yeast gene YER185W,1.0
same,The level of expressed mRNA in the presence of chemical substance/The level of expressed mRNA in the absence of chemical substance,yeast gene YFL050C,0.9
same,The level of expressed mRNA in the presence of chemical substance/The level of expressed mRNA in the absence of chemical substance,yeast gene YGL013C,1.4
same,The level of expressed mRNA in the presence of chemical substance/The level of expressed mRNA in the absence of chemical substance,yeast gene YGL254W,1.4
same,The level of expressed mRNA in the presence of chemical substance/The level of expressed mRNA in the absence of chemical substance,yeast gene YGR088W,0.8
same,The level of expressed mRNA in the presence of chemical substance/The level of expressed mRNA in the absence of chemical substance,yeast gene YGR138C,1.0
same,The level of expressed mRNA in the presence of chemical substance/The level of expressed mRNA in the absence of chemical substance,yeast gene YGR197C,0.8
same,The level of expressed mRNA in the presence of chemical substance/The level of expressed mRNA in the absence of chemical substance,yeast gene YGR209C,1.6
same,The level of expressed mRNA in the presence of chemical substance/The level of expressed mRNA in the absence of chemical substance,yeast gene YGR224W,0.6
same,The level of expressed mRNA in the presence of chemical substance/The level of expressed mRNA in the absence of chemical substance,yeast gene YHL040C,1.5
same,The level of expressed mRNA in the presence of chemical substance/The level of expressed mRNA in the absence of chemical substance,yeast gene YHL047C,1.5
same,The level of expressed mRNA in the presence of chemical substance/The level of expressed mRNA in the absence of chemical substance,yeast gene YHR008C,0.9
same,The level of expressed mRNA in the presence of chemical substance/The level of expressed mRNA in the absence of chemical substance,yeast gene YHR048W,1.9
same,The level of expressed mRNA in the presence of chemical substance/The level of expressed mRNA in the absence of chemical substance,yeast gene YHR053C,2.2
same,The level of expressed mRNA in the presence of chemical substance/The level of expressed mRNA in the absence of chemical substance,yeast gene YHR055C,2.1
same,The level of expressed mRNA in the presence of chemical substance/The level of expressed mRNA in the absence of chemical substance,yeast gene YIR002C,1.2
same,The level of expressed mRNA in the presence of chemical substance/The level of expressed mRNA in the absence of chemical substance,yeast gene YIR038C,1.3
same,The level of expressed mRNA in the presence of chemical substance/The level of expressed mRNA in the absence of chemical substance,yeast gene YJL101C,1.3
same,The level of expressed mRNA in the presence of chemical substance/The level of expressed mRNA in the absence of chemical substance,yeast gene YJR104C,1.5
same,The level of expressed mRNA in the presence of chemical substance/The level of expressed mRNA in the absence of chemical substance,yeast gene YKL026C,1.8
same,The level of expressed mRNA in the presence of chemical substance/The level of expressed mRNA in the absence of chemical substance,yeast gene YKL064W,0.9
same,The level of expressed mRNA in the presence of chemical substance/The level of expressed mRNA in the absence of chemical substance,yeast gene YKR066C,0.7
same,The level of expressed mRNA in the presence of chemical substance/The level of expressed mRNA in the absence of chemical substance,yeast gene YKR105C,1.3
same,The level of expressed mRNA in the presence of chemical substance/The level of expressed mRNA in the absence of chemical substance,yeast gene YKR106W,1.3
same,The level of expressed mRNA in the presence of chemical substance/The level of expressed mRNA in the absence of chemical substance,yeast gene YLL028W,0.7
same,The level of expressed mRNA in the presence of chemical substance/The level of expressed mRNA in the absence of chemical substance,yeast gene YLL057C,1.4
same,The level of expressed mRNA in the presence of chemical substance/The level of expressed mRNA in the absence of chemical substance,yeast gene YLL060C,5.8
same,The level of expressed mRNA in the presence of chemical substance/The level of expressed mRNA in the absence of chemical substance,yeast gene YLR043C,1.1
same,The level of expressed mRNA in the presence of chemical substance/The level of expressed mRNA in the absence of chemical substance,yeast gene YLR046C,0.5
same,The level of expressed mRNA in the presence of chemical substance/The level of expressed mRNA in the absence of chemical substance,yeast gene YML028W,0.8
same,The level of expressed mRNA in the presence of chemical substance/The level of expressed mRNA in the absence of chemical substance,yeast gene YML116W,2.2
same,The level of expressed mRNA in the presence of chemical substance/The level of expressed mRNA in the absence of chemical substance,yeast gene YMR015C,0.7
same,The level of expressed mRNA in the presence of chemical substance/The level of expressed mRNA in the absence of chemical substance,yeast gene YMR038C,1.9
same,The level of expressed mRNA in the presence of chemical substance/The level of expressed mRNA in the absence of chemical substance,yeast gene YNL239W,1.3
same,The level of expressed mRNA in the presence of chemical substance/The level of expressed mRNA in the absence of chemical substance,yeast gene YNL241C,0.9
same,The level of expressed mRNA in the presence of chemical substance/The level of expressed mRNA in the absence of chemical substance,yeast gene YNL259C,1.5
same,The level of expressed mRNA in the presence of chemical substance/The level of expressed mRNA in the absence of chemical substance,yeast gene YOL158C,0.7
same,The level of expressed mRNA in the presence of chemical substance/The level of expressed mRNA in the absence of chemical substance,yeast gene YOR031W,0.9
same,The level of expressed mRNA in the presence of chemical substance/The level of expressed mRNA in the absence of chemical substance,yeast gene YOR153W,0.5
same,The level of expressed mRNA in the presence of chemical substance/The level of expressed mRNA in the absence of chemical substance,yeast gene YOR247W,0.7
same,The level of expressed mRNA in the presence of chemical substance/The level of expressed mRNA in the absence of chemical substance,yeast gene YOR251C,1.1
same,The level of expressed mRNA in the presence of chemical substance/The level of expressed mRNA in the absence of chemical substance,yeast gene YOR273C,0.6
same,The level of expressed mRNA in the presence of chemical substance/The level of expressed mRNA in the absence of chemical substance,yeast gene YPL163C,0.5
same,The level of expressed mRNA in the presence of chemical substance/The level of expressed mRNA in the absence of chemical substance,yeast gene YPR200C,1.4
